Tests used:
Assay type in all cases: in vivo
[1] = tested on: lambsquarters (Chenopodium album); assay: Test C postemergence, plant response rating; conditions: for Lambsquarters plant response rating: scale 0 to 100 (0 no effect, 100 complete control)
How it was run: (§1)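 Visual injury score, 0 = no effect, 100 = complete control, assigned against untreated controls after 13 to 15 d in the greenhouse. Compounds were applied in a surfactant-containing non-phytotoxic solvent mix, preemergence to seeded loam/sand or silt loam soil, or postemergence to 1- to 4-leaf plants (2 to 18 cm).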

[2] = tested on: morningglory (Ipomoea coccinea); assay: Test C postemergence, plant response rating; conditions: for Morningglory plant response rating: scale 0 to 100 (0 no effect, 100 complete control)
How it was run: as §1

[3] = tested on: barnyardgrass (Echinochloa crus-galli); assay: Test C postemergence, plant response rating; conditions: for Plant response rating, Barnyardgrass: scale 0 to 100; for Barnyardgrass plant response rating: scale 0 to 100 (0 no effect, 100 complete control)
How it was run: as §1

[4] = tested on: foxtail, giant (giant foxtail, Setaria faberii); assay: Test C postemergence, plant response rating; conditions: for Foxtail, Giant plant response rating: scale 0 to 100 (0 no effect, 100 complete control)
How it was run: as §1

[5] = tested on: crabgrass, large (large crabgrass, Digitaria sanguinalis); assay: Test C postemergence, plant response rating; conditions: for Crabgrass, Large plant response rating: scale 0 to 100 (0 no effect, 100 complete control)
How it was run: as §1

soybean (Glycine max) = assay: Test C postemergence, plant response rating; conditions: for Soybean plant response rating: scale 0 to 100 (0 no effect, 100 complete control)
How it was run: as §1

[6] = tested on: nutsedge, yellow (yellow nutsedge, Cyperus esculentus); assay: Test C postemergence, plant response rating; conditions: for Nutsedge, Yellow plant response rating: scale 0 to 100 (0 no effect, 100 complete control)
How it was run: as §1

corn (Zea mays) = assay: Test C postemergence, plant response rating; conditions: for Corn plant response rating: scale 0 to 100 (0 no effect, 100 complete control)
How it was run: as §1

[7] = tested on: ryegrass, Italian (Italian ryegrass, Lolium multiflorum); assay: Test C postemergence, plant response rating; conditions: for Ryegrass, Italian plant response rating: scale 0 to 100 (0 no effect, 100 complete control)
How it was run: as §1

[8] = tested on: oat, wild (wild oat Avena fatua); assay: Test C postemergence, plant response rating; conditions: for Oat, Wild plant response rating: scale 0 to 100 (0 no effect, 100 complete control)
How it was run: as §1

[9] = tested on: wheat (winter wheat, Triticum aestivum); assay: Test C postemergence, plant response rating
How it was run: as §1

[10] = tested on: chickweed (common chickweed, Stellaria media); assay: Test C postemergence, plant response rating; conditions: for Chickweed plant response rating: scale 0 to 100 (0 no effect, 100 complete control)
How it was run: as §1

[11] = tested on: oilseed rape (Brassica napus); assay: Test C postemergence, plant response rating; conditions: for Oilseed Rape plant response rating: scale 0 to 100 (0 no effect, 100 complete control)
How it was run: as §1

kochia (Kochia scoparia) [12] = assay: Test C postemergence, plant response rating; conditions: for Kochia plant response rating: scale 0 to 100 (0 no effect, 100 complete control)
How it was run: as §1

[13] = tested on: blackgrass (Alopecurus myosuroides); assay: Test C postemergence, plant response rating; conditions: for Plant response rating, Blackgrass: scale 0 to 100; for Blackgrass plant response rating: scale 0 to 100 (0 no effect, 100 complete control)
How it was run: as §1

[14] = tested on: barnyardgrass (Echinochloa crus-galli); assay: Test A preemergence, visual injury rating; conditions: 0 to 100 scale (0 no effect, 100 complete control)
How it was run: (§2)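 Pre- and postemergence greenhouse screen. Soil: loam + sand. Spray carrier: solvent mixture, non-phytotoxic, with surfactant. Post timing at 1–2 leaves, height 2–10 cm. Readout: visual injury on a 0–100 scale roughly 10 days after application, untreated plants as reference.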

kochia (Kochia scoparia) [15] = assay: Test A preemergence, visual injury rating; conditions: 0 to 100 scale (0 no effect, 100 complete control)
How it was run: as §2

O=C(CCCC(F)(F)F)c1c(Oc2ncc(Cl)cn2)cccc1C(F)(F)F [Compound 125]
10: Barnyardgrass plant response rating ([3]; 125 g ai/ha) | Plant response rating, Foxtail, Giant ([4]; 16 g ai/ha, scale of 0 to 100) | Plant response rating, Foxtail, Giant ([4]; 31 g ai/ha, scale 0 to 100) | Foxtail, Giant plant response rating ([4]; 62 g ai/ha) | Plant response rating, Crabgrass, Large ([5]; 16 g ai/ha, scale of 0 to 100) | Plant response rating, Crabgrass, Large ([5]; 31 g ai/ha, scale 0 to 100) | Nutsedge, Yellow plant response rating ([6]; 125 g ai/ha) | Plant response rating, Corn (corn (Zea mays); 16 g ai/ha, scale of 0 to 100) | Plant response rating, Corn (corn (Zea mays); 31 g ai/ha, scale 0 to 100) | Ryegrass, Italian plant response rating ([7]; 62 g ai/ha) | Plant response rating, Oat, Wild ([8]; 31 g ai/ha, scale 0 to 100) | Plant response rating, Blackgrass ([13]; 16 g ai/ha)
90: Chickweed plant response rating ([10]; 62 g ai/ha) | Oilseed Rape plant response rating ([11]; 62 g ai/ha) | Plant response rating, Kochia (kochia (Kochia scoparia) [12]; 31 g ai/ha, scale 0 to 100)
15: Crabgrass, Large plant response rating ([5]; 62 g ai/ha) | Corn plant response rating (corn (Zea mays); 62 g ai/ha) | Ryegrass, Italian plant response rating ([7]; 125 g ai/ha) | Oat, Wild plant response rating ([8]; 62 g ai/ha) | Oat, Wild plant response rating ([8]; 125 g ai/ha) | Blackgrass plant response rating ([13]; 62 g ai/ha)
98: Plant response rating, Lambsquarters ([1]; 31 g ai/ha, scale 0 to 100) | Chickweed plant response rating ([10]; 125 g ai/ha) | Kochia plant response rating (kochia (Kochia scoparia) [12]; 125 g ai/ha)
45: Plant response rating, Morningglory ([2]; 31 g ai/ha, scale 0 to 100)
80: Plant response rating, Oilseed Rape ([11]; 16 g ai/ha, scale of 0 to 100)
20: Plant response rating, Morningglory ([2]; 16 g ai/ha, scale of 0 to 100) | Crabgrass, Large plant response rating ([5]; 125 g ai/ha) | Corn plant response rating (corn (Zea mays); 125 g ai/ha) | Plant response rating, Blackgrass ([13]; 31 g ai/ha)
25: Foxtail, Giant plant response rating ([4]; 125 g ai/ha) | Plant response rating, Soybean (soybean (Glycine max); 16 g ai/ha, scale of 0 to 100) | Wheat plant response rating ([9]; 125 g ai/ha, scale 0 to 100 (0 no effect, 100 complete control))
85: Plant response rating, Oilseed Rape ([11]; 31 g ai/ha, scale 0 to 100) | Plant response rating, Kochia (kochia (Kochia scoparia) [12]; 16 g ai/ha, scale of 0 to 100)
60: Plant response rating, Soybean (soybean (Glycine max); 31 g ai/ha, scale 0 to 100)
95: Lambsquarters plant response rating ([1]; 62 g ai/ha) | Oilseed Rape plant response rating ([11]; 125 g ai/ha) | Kochia plant response rating (kochia (Kochia scoparia) [12]; 62 g ai/ha)
5: Plant response rating, Barnyardgrass ([3]; 16 g ai/ha) | Plant response rating, Barnyardgrass ([3]; 31 g ai/ha) | Barnyardgrass plant response rating ([3]; 62 g ai/ha) | Plant response rating, Nutsedge, Yellow ([6]; 16 g ai/ha, scale of 0 to 100) | Plant response rating, Nutsedge, Yellow ([6]; 31 g ai/ha, scale 0 to 100) | Nutsedge, Yellow plant response rating ([6]; 62 g ai/ha) | Plant response rating, Ryegrass, Italian ([7]; 16 g ai/ha, scale of 0 to 100) | Plant response rating, Ryegrass, Italian ([7]; 31 g ai/ha, scale 0 to 100) | Plant response rating, Oat, Wild ([8]; 16 g ai/ha, scale of 0 to 100) | Plant response rating, Wheat ([9]; 16 g ai/ha, scale of 0 to 100) | Plant response rating, Wheat ([9]; 31 g ai/ha, scale 0 to 100)
75: Morningglory plant response rating ([2]; 125 g ai/ha) | Plant response rating, Chickweed ([10]; 31 g ai/ha, scale 0 to 100)
65: Soybean plant response rating (soybean (Glycine max); 62 g ai/ha)
70: Plant response rating, Lambsquarters ([1]; 16 g ai/ha, scale of 0 to 100) | Soybean plant response rating (soybean (Glycine max); 125 g ai/ha) | Plant response rating, Chickweed ([10]; 16 g ai/ha, scale of 0 to 100)
30: Blackgrass plant response rating ([13]; 125 g ai/ha)
100: Lambsquarters plant response rating ([1]; 125 g ai/ha) | Plant response rating, Barnyardgrass ([14]; 125 g ai/ha) | Barnyardgrass plant response rating ([14]; 500 g ai/ha) | Plant response rating, Kochia (kochia (Kochia scoparia) [15]; 125 g ai/ha) | Kochia plant response rating (kochia (Kochia scoparia) [15]; 500 g ai/ha)
50: Morningglory plant response rating ([2]; 62 g ai/ha)
